Measurements from patent publication US10596118B2, “Solid dispersions” (Shionogi Inc., priority 2015, dated 2020).
≈ marks a conversion by molar mass, not a printed value.

Assays:
[1] = Sun et al., 2012; cited from earlier work
[2] = Solubility by shake flask method with HPLC analysis; conditions: thermodynamic from solid
Method: Solubility measurements of the solid dispersions and physical mixtures were performed using a shake flask method. Individual test samples comprising about 5 mg ospemifene, 30 mg of each physical mixture, or 30 mg of each solid dispersion, were mixed with 20 mL of an aqueous media (either water alone, 0.1N HCl, or a buffered aqueous solution comprising 50 mM phosphate, pH 6.8). The sample was agitated manually for 3 hours. Following mixing, a 1.5 mL sample was withdrawn to a micro-centrifuge tube and centrifuged at 12,000 rpm for 10 min. About 1 mL of supernatant was then transferred to a HPLC vial for HPLC analysis.
The solubilities of ospemifene solid dispersions, the control physical mixtures, and ospemifene alone were determined by HPLC in water, 0.1 N HCl, or 50 mM pH 6.8 buffer using a shake flask method, as described above.

physchem [3] = conditions: organic solvent or mixture, thermodynamic from solid
Text: In developing methods of evaluating the solubility of the various compositions produced in these studies, a common solvent was selected that was capable of dissolving both ospemifene and each of the hydrophilic carriers being evaluated. […] Thus, an incremental solvent addition method was used to estimate the solubility in methanol and ethanol co-solvent mixture.

[4] = poor water solubility and high permeability
physchem [5] = conditions: water or buffered solutions, aqueous buffer
[6] = Micro dissolution in simulated GI fluids (FaSSIF, FeSSIF) and pH 6.8 phosphate buffer; conditions: for solubility in FeSSIF relative to FaSSIF: FeSSIF versus FaSSIF
Text: To investigate the in-vivo absorption process of ospemifene in the GI tract, a dissolution method using simulated GI fluids (FaSSIF and FeSSIF) was developed to simulate drug dissolution in-vivo. The abbreviation “FaSSIF” stands for fasted state simulated intestinal fluid, while the abbreviation “FeSSIF” stands for fed state simulated intestinal fluid. […] FaSSIF and FeSSIF media are commercially available from Biorelevant and were used according to the manufacturer's instructions.
Micro dissolution was conducted in a centrifuge vial containing 1.5 mL of dissolution medium (either FaSSIF or FeSSIF) at room temperature. […] The vials were centrifuged at 30 min, 1, 2 and 3 hour(s) at 14,000 rpm for one minute and 50 μL of supernatant was transferred to an HPLC vial and diluted with 50 μL acetonitrile and assayed by HPLC.
The detector was set at 235 nm. Two mobile phases were used, mobile phase A and mobile phase B. Mobile phase A was 800/200/40 (v/v/v) deionized water/acetonitrile/tetrahydrofuran and mobile phase B was 100% acetonitrile.
For drug content analysis, the same HPLC column and mobile phases were used but the flow rate of the mobile phases was 1 ml/min, the injection volume was 7 μL and the gradient program was as follows: […]

[7] = oral administration of a 60 mg dose; cited from earlier work

| SMILES | maximum solubility enhancement observed with HPMCAS or PVP [1] [fold] | solubility at 3 h ([2]; pH 6.8, aqueous buffer) [µg/mL] | solubility at 3 h ([2]; simulated gastric fluid) [µg/mL] | solubility at 3 h ([2]; water) [µg/mL] | solubility (physchem [3]; solubility in ethanol, ethanol) [µg/mL] | solubility (physchem [3]; solubility in methanol, methanol) [µg/mL] | BCS class [4] | solubility (physchem [5]) [µg/mL] | time the amount of drug in solution remains relatively stable ([6]; FeSSIF and FaSSIF) [h] | solubility in FeSSIF relative to FaSSIF ([6]; listed as micronized ospemifene) | solubility in FeSSIF relative to FaSSIF ([6]; listed as ospemifene alone) | solubility at 2 h ([6]; fassif, thermodynamic from solid) [µg/mL] | solubility ([6]; fessif, thermodynamic from solid) [µg/mL] | solubility ([6]; pH 6.8, aqueous buffer) [µg/mL] | share of total dose eliminated via the fecal route [7] [%] |
| --- | --- | --- | --- | --- | --- | --- | --- | --- | --- | --- | --- | --- | --- | --- | --- |
| COc1ccc2c(c1)c(CC(=O)O)c(C)n2C(=O)c1ccc(Cl)cc1 [indomethacin] | 9 | – | – | – | – | – | – | – | – | – | – | – | – | – | – |
| OCCOc1ccc(/C(=C(/CCCl)c2ccccc2)c2ccccc2)cc1 [Ospemifene (OSP), ospemifene] | – | < 0.03 | < 0.03 | 0.04 (≈ 0.106 µM) | ~57000 (≈ 150000 µM) | ~67000 (≈ 177000 µM) | BCS class II | < 0.3 | 2 to 3 | about 4 fold | 2-3 fold | 10 (≈ 26.4 µM) | 45 (≈ 119 µM) | < 10 | 75 |
